Data from PMC10418426, “A Comprehensive Technology Platform for the Rapid Discovery of Peptide Inhibitors against SARS-CoV-2 Pseudovirus Infection” (International Journal of Molecular Sciences, 2023).
Starred links: 1 amine or outer side, 2 acyl side, 3 side chain; linkers in the order of their positions; H or OH if unused. Positions of bridges follow the written chain, without caps; N, C: chain ends. Residues, ends and D or L forms follow the SMILES beside them. mXylylene = c1cc(C[*:1])cc(C[*:2])c1

Tested on: HEK293-ACE2 cells
Conditions: 1 to 100 μM, 24 h treatment plus 24 h in fresh medium, absorbance 560 nm

## C[C@@H](O)[C@@H]1NC(=O)[C@@H]2CCCN2C(=O)[C@H](CCC(N)=O)NC(=O)[C@@H](N)CSCc2cccc(c2)CSC[C@@H](C(N)=O)NC(=O)[C@H](CCC(N)=O)NC(=O)[C@H](Cc2c[nH]c3ccccc23)NC(=O)CNC(=O)[C@H](CCCCN)NC(=O)CNC(=O)[C@H](CC(N)=O)NC1=O [c9_05] (H-CQPTNGKGWQC-NH2; linker 1-11 via mXylylene)
  effect on cell viability (MTT): did not cause any significant decrease in cell viability
